This note sets out measurements from US20230055237A1, “COMPOUNDS AND METHODS FOR THE TREATMENT OF CYSTIC FIBROSIS” (Flatley Discovery Lab, LLC, priority 2019, published 2023).

This assay deals with T1, CFTR (Homo sapiens, UniProt P13569, DEL508-508).
T1 construct: Primary CF airway epithelial cells were obtained from the UNC Cystic Fibrosis Tissue Procurement and Cell Culture Core; host or cells: primary CF airway epithelial cells, differentiated at the air-liquid interface
Kind of assay: Equivalent current assay in primary CF airway epithelial cells (NAUC, combination with 1st site corrector FDL169 or VX-809). Particulars: 37° C., 24 h. The class given is cell-based.

Where [1] appears, read: test compound 1 μM in combination with 1st site corrector VX-809 (3 μM).
The mark [2] stands for this setting: test compound 3 μM in combination with 1st site corrector VX-809 (3 μM).
The mark [3] stands for this setting: test compound 10 μM in combination with 1st site corrector VX-809 (3 μM).
[4] abbreviates: test compound 1 μM in combination with 1st site corrector FDL169 (3 μM).
Setting [5] is: test compound 3 μM in combination with 1st site corrector FDL169 (3 μM).
[6] abbreviates: test compound 10 μM in combination with 1st site corrector FDL169 (3 μM).

T1 sequence (P13569 with tags, fused parts or gaps DEL508-508): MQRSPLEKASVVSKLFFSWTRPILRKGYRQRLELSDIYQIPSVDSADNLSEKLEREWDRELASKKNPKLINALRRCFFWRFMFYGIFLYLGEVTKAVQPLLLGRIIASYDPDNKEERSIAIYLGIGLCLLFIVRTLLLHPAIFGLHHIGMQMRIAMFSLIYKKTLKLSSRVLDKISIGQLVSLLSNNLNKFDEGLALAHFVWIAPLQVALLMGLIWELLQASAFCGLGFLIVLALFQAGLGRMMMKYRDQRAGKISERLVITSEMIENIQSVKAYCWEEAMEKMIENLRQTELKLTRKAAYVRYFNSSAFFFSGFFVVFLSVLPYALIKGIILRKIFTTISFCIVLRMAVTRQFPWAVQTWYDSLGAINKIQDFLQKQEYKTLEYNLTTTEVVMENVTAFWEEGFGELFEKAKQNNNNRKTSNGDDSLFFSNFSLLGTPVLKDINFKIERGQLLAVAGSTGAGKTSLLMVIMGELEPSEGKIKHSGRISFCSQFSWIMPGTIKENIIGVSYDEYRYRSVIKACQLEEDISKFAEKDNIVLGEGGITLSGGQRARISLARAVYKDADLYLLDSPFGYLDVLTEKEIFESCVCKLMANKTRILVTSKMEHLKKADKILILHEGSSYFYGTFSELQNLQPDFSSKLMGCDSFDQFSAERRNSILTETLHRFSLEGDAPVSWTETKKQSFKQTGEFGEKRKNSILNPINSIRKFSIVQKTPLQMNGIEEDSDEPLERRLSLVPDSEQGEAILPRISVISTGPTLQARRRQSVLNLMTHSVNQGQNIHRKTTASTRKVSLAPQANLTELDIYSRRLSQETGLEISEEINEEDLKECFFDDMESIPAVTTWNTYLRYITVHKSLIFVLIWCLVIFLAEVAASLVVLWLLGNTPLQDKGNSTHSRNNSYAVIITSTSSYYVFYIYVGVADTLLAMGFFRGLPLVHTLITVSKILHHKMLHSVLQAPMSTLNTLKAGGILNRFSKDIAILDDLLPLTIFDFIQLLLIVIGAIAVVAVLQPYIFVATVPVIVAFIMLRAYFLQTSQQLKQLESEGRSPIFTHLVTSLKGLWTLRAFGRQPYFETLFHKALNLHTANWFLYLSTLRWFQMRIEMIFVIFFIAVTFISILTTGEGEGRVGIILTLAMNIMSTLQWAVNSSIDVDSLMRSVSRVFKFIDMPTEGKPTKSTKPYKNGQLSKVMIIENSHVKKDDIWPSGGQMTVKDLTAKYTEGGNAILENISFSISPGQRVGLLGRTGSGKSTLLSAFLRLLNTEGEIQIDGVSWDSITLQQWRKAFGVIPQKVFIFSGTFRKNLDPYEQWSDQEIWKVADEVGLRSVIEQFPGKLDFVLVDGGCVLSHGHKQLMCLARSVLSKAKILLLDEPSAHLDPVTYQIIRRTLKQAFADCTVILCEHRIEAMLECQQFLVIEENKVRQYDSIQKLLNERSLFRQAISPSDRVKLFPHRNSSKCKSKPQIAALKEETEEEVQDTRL

With `CN(O)C(=O)C1C(C(=O)Nc2cc(Cl)cc(Cl)c2)C2CC(F)(F)CN2C12C(=O)Nc1c(Cl)cc(Cl)cc12` (single isomer, unassigned) [Example 225a, 5,7-dichloro-N1′-(3,5-dichlorophenyl)-6′,6′-difluoro-N2′-hydroxy-N2′-methyl-2-oxo-1′,2′,5′,6′,7′,7a′-hexahydrospiro[indoline-3,3′-pyrrolizine]-1′,2′-dicarboxamide], the “Nauc @ 1 μM” value under setting [1] is on record as “+ (NAUC “+” refers to an observed NAUC <140% of positive control)”. Further, the “Nauc @ 3 μM” value under setting [2] is listed as “+ (NAUC “+” refers to an observed NAUC <140% of positive control)”. Moreover, under setting [3], the “Nauc @ 10 μM” value is reported as “+++ (NAUC “+++” refers to an observed NAUC>170% of positive control)”.
Regarding `O=C(Nc1cc(Cl)cc(Cl)c1)C1CN(CC(F)(F)F)C2(C(=O)Nc3c(Cl)cc(Cl)cc32)C1C(=O)O` (stereo not drawn) [Example 79c], under setting [1], the “Nauc @ 1 μM” value is “+ (NAUC “+” refers to an observed NAUC <140% of positive control)”. Further, under setting [2], the “Nauc @ 3 μM” value is “+ (NAUC “+” refers to an observed NAUC <140% of positive control)”. In addition, the “Nauc @ 10 μM” value under setting [3] is recorded as “+ (NAUC “+” refers to an observed NAUC <140% of positive control)”.
`O=C(Nc1cc(Cl)cc(Cl)c1)C1C2CCCN2C2(C(=O)Nc3c(Cl)cc(Cl)cc32)C1C(=O)O` (stereo not drawn) [Example 15]: the “Nauc @ 3 μM” value under setting [2] is given as “+++ (NAUC “+++” refers to an observed NAUC>170% of positive control)”. Further, the “Nauc @ 10 μM” value under setting [3] is “+++ (NAUC “+++” refers to an observed NAUC>170% of positive control)”.
On to `O=C(O)[C@H]1[C@@H](C(=O)N(CCO)c2cc(Cl)cc(Cl)c2)[C@H]2CC(F)(F)CN2[C@]12C(=O)Nc1c(Cl)cc(Cl)cc12` [Example 150], for which the “Nauc @ 1 μM” value under setting [4] was “+ (NAUC “+” refers to an observed NAUC <140% of positive control)”. Also, the “Nauc @ 3 μM” value under setting [5] is given as “+++ (NAUC “+++” refers to an observed NAUC>170% of positive control)”.
As to `Cn1ccc(NC(=O)[C@H]2[C@@H](C(=O)Nc3cc(Cl)cc(Cl)c3)[C@H]3CCCN3[C@]23C(=O)Nc2c(Cl)cc(Cl)cc23)n1` (single isomer, unassigned) [Example 240, (1′R,2′S,7a′R)-5,7-dichloro-N1′-(3,5-dichlorophenyl)-N2′-(1-methyl-1H-pyrazol-3-yl)-2-oxo-1′,2′,5′,6′,7′,7a′-hexahydrospiro[indoline-3,3′-pyrrolizine]-1′,2′-dicarboxamide], the “Nauc @ 1 μM” value under setting [1] is reported as “+ (NAUC “+” refers to an observed NAUC <140% of positive control)”. Besides, under setting [2], the “Nauc @ 3 μM” value is “+ (NAUC “+” refers to an observed NAUC <140% of positive control)”. For the same molecule, the “Nauc @ 10 μM” value under setting [3] is reported as “+ (NAUC “+” refers to an observed NAUC <140% of positive control)”.
With `O=C(O)[C@H]1[C@@H](C(=O)N(CC2CC2)c2ccccc2-c2ccccc2)[C@H]2CC(F)(F)CN2[C@]12C(=O)Nc1c(Cl)cc(Cl)cc12` [Example 180], the “Nauc @ 1 μM” value under setting [4] was “+++ (NAUC “+++” refers to an observed NAUC>170% of positive control)”. In addition, the “Nauc @ 3 μM” value under setting [5] was “+++ (NAUC “+++” refers to an observed NAUC>170% of positive control)”. Besides, the “Nauc @ 10 μM” value under setting [6] was “+ (NAUC “+” refers to an observed NAUC <140% of positive control)”.
With `CN(C(=O)[C@H]1[C@H]2CC(F)(F)CN2[C@]2(C(=O)Nc3c(Cl)cc(Cl)cc32)[C@H]1C(=O)O)c1cccc(C(F)(F)F)n1` [Example 114], the “Nauc @ 1 μM” value under setting [1] is recorded as “+++ (NAUC “+++” refers to an observed NAUC>170% of positive control)”. Further, under setting [2], the “Nauc @ 3 μM” value was “++ (NAUC “++” refers to an observed NAUC 170-140% of positive control)”. Besides, the “Nauc @ 10 μM” value under setting [3] was “+++ (NAUC “+++” refers to an observed NAUC>170% of positive control)”.
Regarding `CN(C(=O)[C@H]1[C@@H](C(=O)O)[C@]2(C(=O)Nc3c(Cl)cc(Cl)cc32)N2CC(F)(F)C[C@@H]12)c1cc(Cl)cc(Cl)c1F` (single isomer, unassigned) [Example 265a], the “Nauc @ 1 μM” value under setting [1] is “+ (NAUC “+” refers to an observed NAUC <140% of positive control)”. Moreover, the “Nauc @ 3 μM” value under setting [2] is “+++ (NAUC “+++” refers to an observed NAUC>170% of positive control)”. Moreover, the “Nauc @ 10 μM” value under setting [3] was “+++ (NAUC “+++” refers to an observed NAUC>170% of positive control)”.
Consider `CC(C)C1NC2(C(=O)Nc3c(Cl)cc(Cl)cc32)C(C(=O)O)C1C(=O)Nc1cc(Cl)cc(Cl)c1` (stereo not drawn) [Example 33], for which, under setting [2], the “Nauc @ 3 μM” value is recorded as “+++ (NAUC “+++” refers to an observed NAUC>170% of positive control)”. Further, under setting [3], the “Nauc @ 10 μM” value was “+++ (NAUC “+++” refers to an observed NAUC>170% of positive control)”.
In the case of `CN(C(=O)C1C2CC(F)(F)CN2C2(C(=O)Nc3c(Cl)cc(Cl)cc32)C1C(=O)O)c1cc(Cl)cc(Cl)c1` (stereo not drawn) [Example 57], the “Nauc @ 3 μM” value under setting [2] was “+++ (NAUC “+++” refers to an observed NAUC>170% of positive control)”. In addition, the “Nauc @ 10 μM” value under setting [3] is “+++ (NAUC “+++” refers to an observed NAUC>170% of positive control)”.
Take `CN(C(=O)[C@H]1[C@H]2CC(F)(F)CN2C2(C(=O)Nc3c(Cl)cccc32)[C@H]1C(=O)O)c1cc(Cl)cc(Cl)c1` (stereo partly drawn) [Example 104]: the “Nauc @ 10 μM” value under setting [6] is listed as “+ (NAUC “+” refers to an observed NAUC <140% of positive control)”.
With `CN(C(=O)C1C2N(CCC2(F)F)C2(C(=O)Nc3c(Cl)cc(Cl)cc32)C1C(=O)O)c1cc(Cl)cc(Cl)c1` (single isomer, unassigned) [Example 268a, 5,7-dichloro-1′-((3,5-dichlorophenyl)(methyl)carbamoyl)-7′,7′-difluoro-2-oxo-1′,2′,5′,6′,7′,7a′-hexahydrospiro[indoline-3,3′-pyrrolizine]-2′-carboxylic acid], the “Nauc @ 1 μM” value under setting [1] is given as “+ (NAUC “+” refers to an observed NAUC <140% of positive control)”. Moreover, the “Nauc @ 3 μM” value under setting [2] was “+ (NAUC “+” refers to an observed NAUC <140% of positive control)”. Moreover, under setting [3], the “Nauc @ 10 μM” value was “+ (NAUC “+” refers to an observed NAUC <140% of positive control)”.
As to `O=C(Nc1cc(Cl)cc(Cl)c1)C1C(C(F)(F)c2ccncc2)NC2(C(=O)Nc3c(Cl)cc(Cl)cc32)C1C(=O)O` (stereo not drawn) [Example 66.9a, 5,7-dichloro-4′-((3,5-dichlorophenyl)carbamoyl)-5′-(difluoro(pyridin-4-yl)methyl)-2-oxospiro[indoline-3,2′-pyrrolidine]-3′-carboxylic acid], the “Nauc @ 10 μM” value under setting [3] is “+ (NAUC “+” refers to an observed NAUC <140% of positive control)”.
As to `O=C(Nc1ccc2ccccc2c1)[C@H]1[C@H]2CC(F)(F)CN2[C@]2(C(=O)Nc3c(Cl)cc(Cl)cc32)[C@H]1C(=O)O` [Example 115], the “Nauc @ 1 μM” value under setting [1] is “+ (NAUC “+” refers to an observed NAUC <140% of positive control)”. For the same molecule, under setting [2], the “Nauc @ 3 μM” value is “+ (NAUC “+” refers to an observed NAUC <140% of positive control)”. Under setting [3], the “Nauc @ 10 μM” value is recorded as “+ (NAUC “+” refers to an observed NAUC <140% of positive control)”.
In the case of `O=C(O)[C@H]1[C@@H](C(=O)N(c2cc(Cl)cc(Cl)c2)C2CCCC2)[C@H]2CC(F)(F)CN2[C@]12C(=O)Nc1c(Cl)cc(Cl)cc12` [Example 175], the “Nauc @ 1 μM” value under setting [4] is recorded as “+++ (NAUC “+++” refers to an observed NAUC>170% of positive control)”. For the same molecule, under setting [5], the “Nauc @ 3 μM” value was “+++ (NAUC “+++” refers to an observed NAUC>170% of positive control)”. Also, the “Nauc @ 10 μM” value under setting [6] is “+++ (NAUC “+++” refers to an observed NAUC>170% of positive control)”.
Take `O=C(Nc1cncc(C(F)(F)F)n1)C1C2C[C@@](O)(C(F)(F)F)CN2C2(C(=O)Nc3c(Cl)cc(Cl)cc32)C1C(=O)O` (stereo partly drawn) [Example 17]: the “Nauc @ 3 μM” value under setting [2] is recorded as “+++ (NAUC “+++” refers to an observed NAUC>170% of positive control)”. Moreover, under setting [3], the “Nauc @ 10 μM” value was “+++ (NAUC “+++” refers to an observed NAUC>170% of positive control)”.
As for `CN1C(=O)[C@]2(c3cc(Cl)cc(Cl)c31)[C@@H](C(=O)O)[C@@H](C(=O)N(CC1CC1)c1cc(Cl)cc(Cl)c1)[C@H]1CC(F)(F)CN12` [Example 202], the “Nauc @ 1 μM” value under setting [4] is on record as “++ (NAUC “++” refers to an observed NAUC 170-140% of positive control)”. In addition, the “Nauc @ 3 μM” value under setting [5] is recorded as “++ (NAUC “++” refers to an observed NAUC 170-140% of positive control)”. For the same molecule, the “Nauc @ 10 μM” value under setting [6] is given as “+ (NAUC “+” refers to an observed NAUC <140% of positive control)”.
As to `CC(C)(C)CN(C(=O)[C@H]1[C@H]2C[C@](C)(OCc3ccccc3)CN2[C@]2(C(=O)Nc3c(Cl)cc(Cl)cc32)[C@H]1C(=O)O)c1cc(Cl)cc(Cl)c1` [Example 90, (1′R,2′S,3R,6′S,7a′R)-6′-(benzyloxy)-5,7-dichloro-1-((3,5-dichlorophenyl)(neopentyl)carbamoyl)-6′-methyl-2-oxo-1′,2′,5′,6′,7′,7a′-hexahydrospiro[indoline-3,3′-pyrrolizine]-2′-carboxylic acid], the “Nauc @ 1 μM” value under setting [4] is listed as “+ (NAUC “+” refers to an observed NAUC <140% of positive control)”. In addition, under setting [5], the “Nauc @ 3 μM” value was “+ (NAUC “+” refers to an observed NAUC <140% of positive control)”.
Consider `O=C(Nc1cncc(C(F)(F)F)n1)C1C2C[C@@](O)(C(F)(F)F)CN2C2(C(=O)Nc3c(Cl)cc(Cl)cc32)C1C(=O)O` (single isomer, unassigned) [Example 75.a], for which the “Nauc @ 10 μM” value under setting [3] was “+ (NAUC “+” refers to an observed NAUC <140% of positive control)”.
For the molecule `CN(C(=O)[C@H]1[C@H]2CC(F)(F)CN2[C@]2(C(=O)Nc3c(Cl)cc(Cl)cc32)[C@H]1C(=O)O)c1cc(Cl)cc(Cl)c1F` (single isomer, unassigned) [Example 265b], the “Nauc @ 1 μM” value under setting [1] was “+ (NAUC “+” refers to an observed NAUC <140% of positive control)”. Besides, under setting [2], the “Nauc @ 3 μM” value was “+ (NAUC “+” refers to an observed NAUC <140% of positive control)”. Under setting [3], the “Nauc @ 10 μM” value is “+ (NAUC “+” refers to an observed NAUC <140% of positive control)”.
